Test results taken from publication PMC8231170, “Biphenylalkoxyamine Derivatives–Histamine H3 Receptor Ligands with Butyrylcholinesterase Inhibitory Activity” (Molecules, 2021).
Where a name gives a salt, the structure may show the parent alone. Read-outs that look alike come from different tables or passages of the source.

Legend:
human MAO B = target: T1, human MAO B (Homo sapiens, UniProt P27338); experiment: fluorometric Monoamine Oxidase assay; format: biochemical; details: at 1 μM; read-out: hMAO B %Inh. (converted)
T1 construct: purchased Sigma Aldrich M7441
T1 sequence (P27338 1-520): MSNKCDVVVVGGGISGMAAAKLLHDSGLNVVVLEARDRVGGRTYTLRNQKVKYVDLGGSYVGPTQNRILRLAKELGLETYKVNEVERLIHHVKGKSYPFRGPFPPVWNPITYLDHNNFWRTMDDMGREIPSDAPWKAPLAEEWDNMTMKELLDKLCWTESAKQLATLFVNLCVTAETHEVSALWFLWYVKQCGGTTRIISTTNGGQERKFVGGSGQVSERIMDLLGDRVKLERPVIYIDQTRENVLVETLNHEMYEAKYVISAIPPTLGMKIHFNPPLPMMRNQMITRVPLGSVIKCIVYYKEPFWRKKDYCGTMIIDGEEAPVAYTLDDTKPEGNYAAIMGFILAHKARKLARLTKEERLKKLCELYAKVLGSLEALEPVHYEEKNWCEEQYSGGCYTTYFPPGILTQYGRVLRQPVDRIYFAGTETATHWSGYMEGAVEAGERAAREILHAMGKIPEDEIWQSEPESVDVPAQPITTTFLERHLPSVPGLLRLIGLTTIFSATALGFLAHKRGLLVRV
Description: Inhibition of human MAO B (hMAO B) was evaluated using a fluorometric Monoamine Oxidase assay as we described previously.
Inhibition of hMAO B was evaluated using fluorometric Monoamine Oxidase assay as described by Łażewska et al.. Recombinant MAO B was purchased from Sigma Aldrich (M7441). […] The assay was carried out in 96-well plate. Tested compounds dissolved in DMSO (1 μM) were added to wells that contained 98 µL of enzyme dilution (1 µg/well) in phosphate buffer (50 mM, pH 7.4). […] An enzymatic reaction started following addition of para-tyramine solution (200 μM). […] Each experiment was performed in duplicate.

[1] = target: T2, human histamine H3 receptor (Homo sapiens, UniProt Q9Y5N1); experiment: hH3R radioligand binding assay ([3H]Nα-methylhistamine)
T2 construct: expressed in transfected cells; host or cells: HEK293
Description: Affinity to human histamine H3 receptor stably expressed in HEK293 cells was evaluated in a radioligand binding assay with N^α-methylhistamine according to the previous procedure. […] The bound radioligand was separated from the free radioligand by filtration through GF/B filters (pretreated with 0.3% (m/v) polyethylenimine) using Inotech cell harvester (Dottikin, Switzerland). Unbound radioligand was removed by three washing steps with ice-cold water. The radioactivity was determined in a liquid scintillation counter (Perkin Elmer Trilux Betacounter, Germany). Scintillation data corrected for non-specific binding were analyzed using GraphPad Prism (V6.01, San Diego, CA, USA) software. Ki values were calculated from IC50 values (from at least three experiments, performed in duplicates) according to the Cheng–Prusoff equation [29].

AChE from electric eel = target: T3, AChE from electric eel (Electrophorus electricus, UniProt O42275); experiment: eeAChE inhibition, Ellman's method; format: biochemical; details: for inhibition at 10 µM: read-out: eeAChE % Inh.; for IC50: AChE from electric eel, read-out: eeAChE IC50 Mean ± SEM
T3 construct: AChE was obtained from electric eel and BuChE from equine serum; purchased Sigma Aldrich; host or cells: electric eel (natural source)
Description: The inhibitory activities of the tested compounds against cholinesterases were evaluated by Ellman’s method. AChE was obtained from electric eel and BuChE from equine serum. Donepezil and rivastigmine were used as reference compounds. […]. Inhibitory activities of the tested compounds against cholinesterases were measured using a spectrophotometric method modified for 96-well microplates as described recently.
[…]. First, all compounds were screened at the concentration of 10 μM. The changes in absorbance were measured at 412 nm, using a microplate reader (EnSpire Multimode; PerkinElmer, Waltham, MA, USA). Then, the percent of inhibition of tested enzymes for each compound was calculated. […] Each concentration was measured in triplicate. All calculations were made using nonlinear regression GraphPad Prism 5 (GraphPad Software, San Diego, CA, USA).

BuChE from equine serum = target: T4, BuChE from equine serum (Equus caballus, UniProt P81908); experiment: eqBuChE inhibition, Ellman's method; format: biochemical; details: BuChE from equine serum; read-out: eqBuChE IC50 Mean ± SEM
T4 construct: AChE was obtained from electric eel and BuChE from equine serum; purchased Sigma Aldrich; host or cells: equine serum (natural source)
Description: The inhibitory activities of the tested compounds against cholinesterases were evaluated by Ellman’s method. AChE was obtained from electric eel and BuChE from equine serum. […] Inhibitory activities of the tested compounds against cholinesterases were measured using a spectrophotometric method modified for 96-well microplates as described recently.
First, all compounds were screened at the concentration of 10 μM. […] Then, the percent of inhibition of tested enzymes for each compound was calculated. […] Each concentration was measured in triplicate. All calculations were made using nonlinear regression GraphPad Prism 5 (GraphPad Software, San Diego, CA, USA).

[2] = target: human butyrylcholineserase; details: read-out: hBuChE IC50; cited from earlier work
[3] = test system: mouse model of scopolamine-induced memory impairments; experiment: step-through Passive Avoidance Task; format: in vivo; details: mice; for latency times, acquisition trial: i.p.
Description: This procedure was created for studying short-term memory as well as long-term memory. The paradigm requires the rodents to behave contrary to their innate preference for dark areas and for avoiding bright ones.
The experiments were carried out on adult male Albino Swiss mice (CD-1, 18–25 g). […] Experimental groups consisted of 6–12 animals, all the animals were used only once and they were killed by cervical dislocation immediately after the assay. Behavioral measures were scored by trained observers, which were blind to experimental conditions. Treatment of laboratory animals in the present study was in full accordance with the respective Polish regulations.
Control animals (negative control) were given an appropriate amount of vehicle (1% aqueous solution of Tween 80; i.p.) 30 min before the test.
The task was performed according to the method described previously. Briefly, the test was conducted in the apparatus with two compartments (LE872, Bioseb, France). The illuminated white compartment (20 cm × 21 cm × 20 cm, 1000 lx) was separated by an automated sliding gate with the smaller dark compartment (7.3 cm × 7.5 cm × 14 cm, 10 lx) equipped with an electric grid floor. For acquisition session, mice were first placed individually in the white compartment and after 30 s the gate to the smaller compartment was opened. Immediately after entering into the dark compartment, the gate was closed and the mouse was punished by an unavoidable electric foot shock (0.8 mA for 2 s). […] Next day (24 h later), the pretested animals were placed again into the bright compartment. […] The latency time to cross through the gate between the compartments was measured.

[4] = [3H]Nα-methylhistamine, HEK293 cells stably expressing human H3R, read-out: hH3R Ki Mean ± SD [CI 95%]

T2 sequence (Q9Y5N1 whole entry): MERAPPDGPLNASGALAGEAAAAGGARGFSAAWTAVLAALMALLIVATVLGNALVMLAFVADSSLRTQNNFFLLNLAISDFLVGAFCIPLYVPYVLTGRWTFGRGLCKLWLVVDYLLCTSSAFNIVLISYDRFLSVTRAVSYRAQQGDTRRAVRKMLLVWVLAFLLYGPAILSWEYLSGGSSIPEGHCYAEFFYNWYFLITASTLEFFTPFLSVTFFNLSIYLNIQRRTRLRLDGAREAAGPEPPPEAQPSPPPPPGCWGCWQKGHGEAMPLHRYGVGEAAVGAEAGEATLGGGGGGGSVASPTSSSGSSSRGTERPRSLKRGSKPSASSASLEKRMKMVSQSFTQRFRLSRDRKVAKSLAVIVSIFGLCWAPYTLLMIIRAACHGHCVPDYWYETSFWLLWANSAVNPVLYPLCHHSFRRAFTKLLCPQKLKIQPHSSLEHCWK
T3 sequence (O42275 24-633): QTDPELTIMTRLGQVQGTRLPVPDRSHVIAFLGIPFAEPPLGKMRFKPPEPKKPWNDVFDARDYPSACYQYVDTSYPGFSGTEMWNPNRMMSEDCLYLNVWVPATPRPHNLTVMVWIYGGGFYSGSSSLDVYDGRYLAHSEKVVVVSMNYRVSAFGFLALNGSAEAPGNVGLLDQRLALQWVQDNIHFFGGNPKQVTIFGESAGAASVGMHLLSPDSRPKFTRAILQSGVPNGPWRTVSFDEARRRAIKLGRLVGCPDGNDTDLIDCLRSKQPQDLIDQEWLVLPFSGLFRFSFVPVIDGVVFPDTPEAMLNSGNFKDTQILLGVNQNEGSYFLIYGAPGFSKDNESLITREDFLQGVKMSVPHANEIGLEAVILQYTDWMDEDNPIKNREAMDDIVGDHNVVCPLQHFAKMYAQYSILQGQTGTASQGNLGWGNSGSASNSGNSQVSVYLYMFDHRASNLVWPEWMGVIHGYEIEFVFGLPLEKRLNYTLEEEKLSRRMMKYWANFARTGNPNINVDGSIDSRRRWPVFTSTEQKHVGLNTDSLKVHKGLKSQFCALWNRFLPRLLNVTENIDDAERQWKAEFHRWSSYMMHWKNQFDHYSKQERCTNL
T4 sequence (P81908 whole entry): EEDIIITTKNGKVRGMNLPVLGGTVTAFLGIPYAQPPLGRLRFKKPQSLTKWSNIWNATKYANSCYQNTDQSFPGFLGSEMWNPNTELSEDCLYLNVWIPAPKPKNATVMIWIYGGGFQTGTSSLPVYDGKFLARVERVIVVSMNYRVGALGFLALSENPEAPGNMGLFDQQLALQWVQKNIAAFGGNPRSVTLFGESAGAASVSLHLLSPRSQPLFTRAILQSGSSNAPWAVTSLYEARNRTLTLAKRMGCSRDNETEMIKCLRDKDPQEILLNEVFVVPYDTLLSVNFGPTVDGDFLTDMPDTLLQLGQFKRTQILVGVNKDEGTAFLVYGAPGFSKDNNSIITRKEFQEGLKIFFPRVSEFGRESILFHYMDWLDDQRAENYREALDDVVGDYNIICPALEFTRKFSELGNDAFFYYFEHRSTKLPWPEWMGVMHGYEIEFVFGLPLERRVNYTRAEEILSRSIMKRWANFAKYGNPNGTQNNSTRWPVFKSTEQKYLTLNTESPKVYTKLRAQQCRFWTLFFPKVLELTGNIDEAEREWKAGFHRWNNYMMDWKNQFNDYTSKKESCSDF

| Compound | inhibition at 1 µM (human MAO B) | Ki [1] | inhibition at 10 µM (AChE from electric eel) | IC50 (BuChE from equine serum) | other results |
| --- | --- | --- | --- | --- | --- |
| c1ccc(-c2ccccc2OCCCCCCN2CCCCC2)cc1 [Compound 10, 1-(6-[1,1′-Biphenyl]-2-yloxy)hexyl)piperidine Hydrogen Oxalate] | 40% | 221 nM | 8% | 1280 ± 20 nM |  |
| c1ccc(-c2ccccc2OCCCCCCN2CCCCCC2)cc1 [Compound 22, 1-(6-([1,1′-Biphenyl]-2-yloxy)hexyl)azepane Hydrogen Oxalate] | 17% | 528 nM | 30% | 690 ± 50 nM |  |
| CCN(C)C(=O)Oc1cccc([C@H](C)N(C)C)c1 [Rivastigmine, rivastigmine, reference compound] |  |  |  |  | IC50 [2]: 370 nM; latency time, retention trial ([3]; 1.0 mg/kg i.p. before scopolamine 1 mg/kg): 84.6 ± 20.1 s; latency time, retention trial ([3]; 2.5 mg/kg i.p. before scopolamine 1 mg/kg): 98.7 ± 17.9 s; latency times, acquisition trial [3]: neither scopolamine, nor 19 nor rivastigmine significantly affected latency times |
| CC1CCCN(CCCCCCOc2ccc(-c3ccccc3)cc2)C1 (stereo not shown) [Compound 13, 1-(6-([1,1′-Biphenyl]-4-yloxy)hexyl)-3-methylpiperidine Hydrogen Oxalate] | 20% |  | > 50% | 950 nM | Ki [1, 4]: 146 ± 65.3 nM; IC50 (AChE from electric eel): 5.02 ± 0.09 µM |
| CN1[C@@H]2C[C@@H](OC(=O)[C@H](CO)c3ccccc3)C[C@H]1[C@@H]1O[C@@H]12 [Scopolamine, scopolamine, reference compound] |  |  |  |  | latency times, acquisition trial [3]: neither scopolamine, nor 19 nor rivastigmine significantly affected latency times |
| CC1CCN(CCCCCOc2cccc(-c3ccccc3)c2)CC1 [Compound 16] | 7% |  | 41% | 1460 ± 30 nM |  |
| c1ccc(-c2cccc(OCCCCCN3CCCCC3)c2)cc1 [Compound 7] | 11% |  | 24% | 1290 ± 20 nM |  |
| CC1CCCN(CCCCCOc2cccc(-c3ccccc3)c2)C1 (stereo not shown) [Compound 12, 1-(5-([1,1′-Biphenyl]-3-yloxy)pentyl)-3-methylpiperidine Hydrogen Oxalate] | 5% | 45 ± 13.4 nM | 27% | 680 ± 10 nM |  |
| c1ccc(-c2ccc(OCCCCCN3CCCCC3)cc2)cc1 [Compound 6] | 50% |  | 24% | 2160 ± 30 nM |  |
| CC1CCCN(CCCCCCOc2ccccc2-c2ccccc2)C1 (stereo not shown) [Compound 15, 1-(6-([1,1′-Biphenyl]-2-yloxy)hexyl)-3-methylpiperidine Hydrogen Oxalate] | 16% | 23 nM | 24% | 2100 ± 60 nM |  |
| CC1CCCN(CCCCCOc2ccc(-c3ccccc3)cc2)C1 (stereo not shown) [Compound 11, 1-(5-([1,1′-Biphenyl]-4-yloxy)pentyl)-3-methylpiperidine Hydrogen Oxalate] | 28% |  | 45% | 910 ± 10 nM | Ki [1, 4]: 27.3 ± 15.1 nM |
| Clc1ccc(CCCOCCCN2CCCCC2)cc1 [Pitolisant, reference compound] | 2% |  |  |  |  |
| c1ccc(-c2cccc(OCCCCCN3CCCCCC3)c2)cc1 [Compound 20] | 14% |  | 26% | 470 ± 10 nM |  |
| c1ccc(-c2ccc(OCCCCCCN3CCCCC3)cc2)cc1 [Compound 8] | 36% |  | 48% | 1630 ± 50 nM |  |
| CC1CCCN(CCCCCCOc2cccc(-c3ccccc3)c2)C1 (stereo not shown) [Compound 14, 1-(6-([1,1′-Biphenyl]-3-yloxy)hexyl)-3-methylpiperidine Hydrogen Oxalate] | 35% | 27 nM | > 50% | 1520 ± 40 nM | IC50 (AChE from electric eel): 4.71 ± 0.13 µM |
| CC1CCN(CCCCCCOc2ccccc2-c2ccccc2)CC1 [Compound 18, 1-(6-([1,1′-Biphenyl]-2-yloxy)hexyl)-4-methylpiperidine Hydrogen Oxalate] | 24% | 561 nM | 20% | 1480 ± 40 nM |  |
